In brackets after ≈: the same amount, converted by molar mass.
Experiments:
[1] = test system: Typhlodromus pyri; test: LR50; higher = less toxic; settings: not reported; mortality
[2] = test system: Danio rerio; settings: acute; duration: 96 hours; mortality
[3] = test system: Rattus norvegicus; settings: for LD50: acute
[4] = test system: Apis mellifera; settings: acute, duration: 48 hours, mortality
[5] = test system: Colinus virginianus; settings: acute; oral; mortality
[6] = test system: Anas platyrhynchos
[7] = test system: Pimephales promelas
[8] = test system: Cyprinodon variegatus; settings: acute, duration: 96 hours
[9] = test system: Bibionidae; settings: chronic/long-term
[10] = test system: Daphnia magna; settings: chronic/long-term; duration: 21 days
[11] = test system: Tagia sp.; settings: acute; duration: 14 days; mortality
[12] = test system: Oncorhynchus mykiss; settings: for NOEC / LOAEL: chronic/long-term; for LOAEL: oral, feed
[13] = test system: Evynnis japonica; settings: acute; duration: 12 hours; mortality
[14] = test system: Metacarcinus magister; settings: chronic/long-term; duration: 200 hours; mortality
[15] = test system: Homo sapiens; settings: clinical
[16] = test system: Lepomis macrochirus; settings: acute, duration: 96 hours
[17] = test system: Bird
[18] = chronic/long-term; development
[19] = test system: Canidae; settings: oral, Dog Other
[20] = test system: Ovis sp.; settings: oral
[21] = test system: Bovidae; settings: chronic; duration: 112 days; oral; diet; no effects
[22] = test system: Coturnix coturnix; settings: chronic; duration: 105 days; oral; diet; mortality
[23] = test system: Gallus gallus; settings: oral, diet
[24] = test system: Sus scrofa; settings: repeat dose other; Not specified; organ weight
[25] = test system: Oryctolagus sp.; settings: subchronic; duration: 8 weeks; oral; gavage; M; New Zealand; clinical chemistry
[26] = test system: Capra sp.; settings: subchronic; duration: 90 days; oral; feed; growth
[27] = reproduction developmental, no effects
[28] = short-term, oral, feed, mortality
[29] = acute, duration: 96 hours, mortality

What does the source list for CC(C)[C@@H](C)[C@@H](O)[C@H](O)[C@@H](C)[C@H]1CC[C@H]2[C@@H]3COC(=O)[C@H]4C[C@H](O)[C@H](O)C[C@]4(C)[C@H]3CC[C@]12C?
LR50 [1]: 0.28 g/ha; LC50 [2]: > 5 µg/mL; LD50 ([3]; oral, mortality): > 5000 mg/kg-day; NOEL [3, 27]: ≥ 1000 mg/kg-day; LD50 ([4]; dermal): > 10 µg/piece; LD50 ([4]; oral, unspecified): > 92.2 µg/piece

For ClC=CCCl [1,3-Dichloropropene], which LD50 [5] is on record?
Its LD50 is 92 mg/kg-day.

What about the NOEC ([6]; reproductive) of the same molecule?
The NOEC was 36 mg/kg-day.

What about the LD50 [6, 28] of the same molecule?
The LD50 was 1080 mg/kg-day.

And the NOEC ([7]; chronic/long-term, duration: 33 days, growth)?
Its NOEC is 0.0069 mg/L.

And the LD50 ([3]; oral, mortality)?
Its LD50 is 130 mg/kg-day.

And the NOAEL ([3]; chronic, duration: 2 years, oral, diet, histopathology: neoplastic)?
Its NOAEL is 2.5 mg/kg-day.

And the LC50 ([8]; mortality)?
Its LC50 is 0.87 µg/mL (≈ 7.84 µM).

And the NOEC ([9]; duration: 28 days, other)?
Its NOEC is 0.369 mg/L.

What does the source list for CCCCCCCCCCO [1-Decanol]?
LD50 ([6]; acute, oral, unspecified, mortality): > 4640 mg/kg-day; LC50 [6, 28]: > 2550 mg/kg-day; LC50 [7, 29]: 2.4 µg/mL (≈ 15.2 µM); NOEC [10]: 0.51 mg/L; LD50 ([3]; oral, mortality): 4720 mg/kg-day; NOAEL [3, 27]: 1000 mg/kg-day; LC50 [11]: > 628 mg/kg; NOEC ([12]; duration: 28 days, growth): 0.0064 mg/L; LD50 ([4]; dermal): > 13.8 µg/piece

For [Al+3].[Al+3].[O-2].[O-2].[O-2].[O-2].[O-2].[Si+4] [Aluminum oxide silicate  (Al2O(SiO4))], which LD50 ([3]; oral, mortality) is on record?
Its LD50 is over 5000 mg/kg.

And the LC50 [13]?
Its LC50 is 494 µg/mL.

And the NOEC ([12]; duration: 30 days, mortality)?
The NOEC was 100 mg/L.

What about the LC50 [14] of the same molecule?
Its LC50 is 32000 µg/mL.

With CC1=C(/C=C/C(C)=C/C=C/C(C)=C/C=C/C=C(C)/C=C/C=C(C)/C=C/C2=C(C)C(=O)CCC2(C)C)C(C)(C)CCC1=O [Canthaxanthin] as the molecule, how does the NOAEL ([15]; ophthalmoscopic examination) read?
Its NOAEL is 0.25 mg/kg-day.

With [O-][Cl+2]([O-])[O-] [Chlorate] as the molecule, how does the NOEL ([15]; duration: 12 weeks, oral, drinking water, M, no effects) read?
Its NOEL is 0.036 mg/kg-day.

Which LC50 ([16]; mortality) does the source give for Cc1cc(C2CC2)nc(Nc2ccccc2)n1 [Cyprodinil] here?
The LC50 was 2.17 µg/mL (≈ 9.63 µM).

And the NOEC [10]?
The NOEC was 0.0018 mg/L.

And the LC50 [12, 29]?
Its LC50 is 1.35 µg/mL (≈ 5.99 µM).

What about the NOEC ([12]; duration: 21 days) of the same molecule?
The NOEC was 0.083 mg/L.

What about the NOEC ([9]; duration: 27 days) of the same molecule?
The NOEC was 80 mg/kg.

And the NOEC ([9]; duration: 28 days)?
The NOEC was 0.24 mg/L.

With CC(=O)O.CCCCCCCCCCCCN=C(N)N [Dodecylguanidine acetate] as the molecule, how does the LD50 ([6]; acute, oral, unspecified) read?
Its LD50 is 857 mg/kg-day.

And the LD50 [3]?
The LD50 was 851 mg/kg-day.

What about the NOEL ([17]; reproductive) of the same molecule?
The NOEL was 17 mg/kg-day.

What about the LC50 ([17]; short-term, oral, feed) of the same molecule?
The LC50 was 208 mg/kg-day.

And the NOAEL [18]?
Its NOAEL is 45 mg/kg-day.

For ClC1=C(Cl)[C@]2(Cl)[C@@H]3[C@H]4C[C@H]([C@@H]5O[C@H]45)[C@@H]3[C@@]1(Cl)C2(Cl)Cl [Endrin], which NOAEL ([19]; chronic, duration: 18 months, diet, organ weight) is on record?
The NOAEL was 1 mg/kg-day.

And the NOAEL ([6]; subchronic, duration: 12 weeks, oral, feed, M/F, mortality)?
Its NOAEL is 0.5 mg/kg.

What about the LEL ([20]; chronic, duration: 112 days, diet, no effects) of the same molecule?
Its LEL is 5 mg/kg-day.

What about the LEL [21] of the same molecule?
Its LEL is 5 mg/kg-day.

What about the LOAEL [22] of the same molecule?
The LOAEL was 0.5 mg/kg-day.

And the LOAEL ([12]; duration: 163 days, clinical chemistry)?
Its LOAEL is 4.3 µg/kg-day.

And the NOAEL ([23]; subchronic, duration: 50 days, mortality)?
Its NOAEL is 1 mg/kg-day.

With CCOP(=O)(NC(C)C)Oc1ccc(SC)c(C)c1 (configuration not stated) [Fenamiphos] as the molecule, how does the NOAEL ([19]; acute, neurology) read?
Its NOAEL is 0.25 mg/kg-day.

What about the NOAEL ([19]; chronic, duration: 1 years, neurology) of the same molecule?
The NOAEL was 0.083 mg/kg-day.

And the LC50 [16]?
The LC50 was 0.0093 µg/mL (≈ 0.0307 µM).

And the NOEC [10]?
The NOEC was 0.00012 mg/L.

What about the LD50 ([3]; mortality) of the same molecule?
The LD50 was 6 mg/kg-day.

And the LC50 [8]?
The LC50 was 0.017 µg/mL (≈ 0.056 µM).

What about the NOEC ([12]; duration: 91 days) of the same molecule?
The NOEC was 0.0038 mg/L.

And the NOEC ([9]; duration: 28 days)?
Its NOEC is 0.00131 mg/L.

With Cc1cc2c(C(C)C)c(O)c(O)c(C=O)c2c(O)c1-c1c(C)cc2c(C(C)C)c(O)c(O)c(C=O)c2c1O [Gossypol] as the molecule, how does the LEL ([19]; repeat dose other, diet, mortality) read?
Its LEL is 5 mg/kg-day.

And the NOAEL [24]?
The NOAEL was 3 mg/kg-day.

What about the LOAEL ([20]; subchronic, duration: 30 days, capsule, gross pathology) of the same molecule?
The LOAEL was 3 mg/kg-day.

And the LEL [25]?
The LEL was 4 mg/kg-day.

And the LEL [26]?
Its LEL is at least 15 mg/kg-day.

And the LOAEL ([12]; duration: 10 months, F, development)?
The LOAEL was 140 mg/kg.

And the NOAEL ([23]; short-term, duration: 20 days, histopathology: nonneoplastic)?
The NOAEL was 20 mg/kg-day.

Reference: EPA's ToxValDB 9.5
